Measurements taken from patent US20240041977A1, “ANNEXIN A1 N-TERMINAL PEPTIDE FORMULATIONS AND METHODS” (ResoTher Pharma A/S, priority 2020, published 2024).
Marks after values point to notes of the source that are not given here. Ends that are not written are not given here.

Experiment: ThT assay lag-time (fibrillation propensity, physical stability)
Format: physicochemical
Source text: ThT is widely used to visualize and quantify the presence of misfolded peptide and protein aggregates called amyloids or fibrils. ThT is a fluorescent molecule that binds to inter molecular beta-sheets in peptides and proteins (here AnxA1). […] A weaker fluorescence intensity is indicative of less amyloids or fibrils present with fewer intermolecular beta-sheets where ThT can bind. Some peptides have a tendency to form fibrils and amyloids and the propensity is dependent on the formulation conditions in an unpredictable manor. Fibrillation is a stochastic process and to avoid long analysis times and both false negatives and positive results, shear stress is introduced to the sample by rigorous rotation in microtiter plates while continuously monitoring the fluorescence emission at approximately 486 nm. An increase in the fluorescence is an indication of the formation of amyloids or fibrils and the time it takes for the fluorescence to start increasing is known as the lag-time. A faster (short) lag-time is an indication of higher propensity for the peptide to degrade by formation of fibrils or amyloids. A ThT fluorescence of 50 AU at t=0 is considered noise or background. Lag time is reported as the time it takes for the signal intensity to exceed 50 AU. All samples for the ThT assay were filtered through cellulose acetate filters ([…], Ø=13 mm, rinsed with MilliQ® water prior to filtration). For each sample, 20 μL ThT of a 1 mM solution was added to 1 mL peptide solution. From this sample mixture, 200 μL was transferred into n wells in a 96 well microtiter plate (n=3-6). 96-well NUNC plates Bottom optics and Sealing tape, Thermo Scientific™ Nunc™ Sealing Tapes, was used. Lag-time is reported as an average of n samples. A fluorescence plate reader (CLARIOstar® Plus, BMG Labtech) was used for the experiments with the following setting: Excitation wavelength 450 nm; Dichroic filter 465 nm; Emission wavelength 486 nm; Focal height 3.5 mm; Gain 1000; […]; […]; Number of flashes per well 20; Temperature 25° C.; Shake mode orbital, Frequency of 300 rpm, 200 s, and shake after each cycle. If possible, the average of all ThT data replicates are used for ThT lag-time determination. In case of very stochastic data, worst-case data is used for lag-time evaluation. ThT lag-time was determined using either a 1-step or 2-step sigmoidal curve.

lag-time (10 mM tris, pH 7.5, AnxA1 1.7 mg/mL containing 5% mannitol or sorbitol): > 65 h | Lag-time (AnxA1 1.4 mg/mL, mannitol 4 wt.%, sucrose 2.5 wt.%, glycyl-glycine 50 mM, pH 8.5): >65 h | Lag-time (AnxA1 1.4 mg/mL, sucrose 10 wt.%, glycyl-glycine 50 mM, pH 8.5): >65 h | Avg. lag-time (AnxA1 1.5 mg/mL, NaCl 0.9%, ZnCl2 0.77 mM, pH N/A): 1.8 h | Avg-lag time (AnxA1 1.5 mg/mL, glucose 5 wt.%, pH 7.1): 21.7 h | Lag-time (AnxA1 1.5 mg/mL, mannitol 4 wt.%, sucrose 2.5 wt.%, glycyl-glycine 10 mM, pH 7.5): >65 h | Lag-time (AnxA1 1.5 mg/mL, mannitol 4 wt.%, sucrose 2.5 wt.%, glycyl-glycine 50 mM, pH 7.6): >65 h | Lag-time (AnxA1 1.5 mg/mL, mannitol 5 wt.%, glycyl-glycine 10 mM, pH 7.4, analysis timeframe 65 hours): >65* hours | Lag-time (AnxA1 1.5 mg/mL, mannitol 5 wt.%, glycyl-glycine 50 mM, pH 7.5): >65 h | Lag-time (AnxA1 1.5 mg/mL, sucrose 10 wt.%, Tris 10 mM, pH 7.5): 42.8 h | Lag-time (AnxA1 1.5 mg/mL, sucrose 10 wt.%, glycyl-glycine 10 mM, pH 8.3): >65 h | Avg. lag-time (AnxA1 1.6 mg/mL in Milli Q water, no salt, pH 7.5, maximum assay time 50 hours): >50.0* h | Avg. lag-time (AnxA1 1.6 mg/mL in Milli Q water, no salt, pH 7.6, maximum assay time 50 hours): >50.0* h | Avg. lag-time (AnxA1 1.6 mg/mL, 0.9% NaCl in Milli Q water, pH 7.1): 28.3 h | Avg. lag-time (AnxA1 1.6 mg/mL, CaCl2 0.77 mM, pH 7.2): 12.5 h | Avg. lag-time (AnxA1 1.6 mg/mL, CaCl2 0.77 mM, pH 7.4): 10.8 h | Avg. lag-time (AnxA1 1.6 mg/mL, NaCl 0.9%, CaCl2 0.77 mM, pH 7.1): 5.4 h | Lag-time (AnxA1 1.6 mg/mL, mannitol 4 wt.%, sucrose 2.5 wt.%, glycyl-glycine 10 mM, pH 8.4): >65 h | Lag-time (AnxA1 1.6 mg/mL, mannitol 5 wt.%, glycyl-glycine printed as 'e' mM, pH 8.3): >65 h | Lag-time (AnxA1 1.6 mg/mL, mannitol 5 wt.%, glycylglycine 10 mM, pH 8.0, no increase in fluorescence within 65 hours): > 65* hours | Avg-lag time (AnxA1 1.6 mg/mL, mannitol 5 wt.%, pH 6.7, no increase in fluorescence within 65 hours): > 65* h | Lag-time (AnxA1 1.6 mg/mL, sucrose 10 wt.%, glycyl-glycine 50 mM, pH 7.6): 64.7 h | Lag-time (AnxA1 1.6 mg/mL, sucrose 10 wt.%, glycylglycine 10 mM, pH 8.0, no increase in fluorescence within 65 hours): > 65* hours | Avg-lag time (AnxA1 1.6 mg/mL, sucrose 10 wt.%, pH 7.2, no increase in fluorescence within 65 hours): > 65* h | Avg-lag time (AnxA1 1.6 mg/mL, trehalose 10 wt.%, pH 7.2): 33.3 h | Avg. lag-time (AnxA1 1.7 mg/mL in Milli-Q water, pH 7.4, no increase in fluorescence within 65 hours): > 65* h | Lag-time (AnxA1 1.7 mg/mL, mannitol 5 wt.%, Tris 10 mM, pH 7.5, no increase in fluorescence within 65 hours): > 65* hours | Lag-time (AnxA1 1.7 mg/mL, sorbitol 5 wt.%, Tris 10 mM, pH 7.6, no increase in fluorescence within 65 hours): > 65* hours | Lag-time (AnxA1 1.7 mg/mL, sorbitol 5 wt.%, glycylglycine 10 mM, pH 8.0, no increase in fluorescence within 65 hours): > 65* hours | Avg. lag-time (AnxA1 3.1 mg/mL in Milli-Q water, pH 7.4): 50.4 h | Lag-time (AnxA1 3.1 mg/mL, mannitol 5 wt.%, glycylglycine 10 mM, pH 8.0, no increase in fluorescence within 65 hours): > 65* hours | Avg. lag-time (AnxA1 3.2 mg/mL in Saline (0.9% NaCl), pH 7.4): 5.6 h | Avg. lag-time (AnxA1 3.2 mg/mL, 0.9% NaCl in Milli Q water, pH 7.4): 9.3 h | Avg. lag-time (AnxA1 3.2 mg/mL, NaCl 0.9%, pH 7.2): 9.7 h | Lag-time (AnxA1 3.2 mg/mL, mannitol 5 wt.%, glycylglycine 10 mM, pH 8.0, no increase in fluorescence within 65 hours): > 65* hours | Lag-time (AnxA1 3.3 mg/mL, mannitol 5 wt.%, glycylglycine 10 mM, pH 8.0, no increase in fluorescence within 65 hours): > 65* hours | Lag-time (AnxA1 4.0 mg/mL, mannitol 5 wt.%, glycyl-glycine 10 mM, pH 8.2): >65 h | Lag-time (AnxA1 4 mg/mL, tonicity 100%, NaCl 0.9 wt%, positive control sample in 0.9% saline): 8.2* hours | Avg. lag-time (AnxA1 4.6 mg/mL in Milli-Q water, pH 7.4): 61.4 h | Lag-time (AnxA1 4.6 mg/mL, sorbitol 5 wt.%, glycylglycine 10 mM, pH 8.0, no increase in fluorescence within 65 hours): > 65* hours | Lag-time (AnxA1 4.6 mg/mL, sucrose 10 wt.%, glycyl-glycine 30 mM, pH 8.0): 39 h | Lag-time (AnxA1 4.7 mg/mL, mannitol 5 wt.%, Tris 10 mM, pH 7.5): 10.7 h | Lag-time (AnxA1 4.7 mg/mL, mannitol 5 wt.%, glycylglycine 10 mM, pH 8.0, no increase in fluorescence within 65 hours): > 65* hours | Lag-time (AnxA1 4.7 mg/mL, sorbitol 5 wt.%, Tris 10 mM, pH 7.5): 10.8 h | Lag-time (AnxA1 4.7 mg/mL, sucrose 10 wt.%, Tris 10 mM, pH 7.5): 11.1 h
Substance: AMVSEFLKQAWFIENEEQEYVQTLKSSKGGPGSAVSPYPTFNPSSDV-NH2 [AnxA1]
fibrillation in ThT assay (6.4 mg/mL, possibly 5.0 mg/ml, and above, 0.9% NaCl): already degraded by the formation of fibrils at time zero
